According to patent US20260364028A1, “COMBINATION TREATMENTS FOR DEPRESSION AND OTHER DISORDERS” (NEURAWELL THERAPEUTICS, priority 2023, published 2026):
Read-outs that look alike come from different tables or passages of the source.

Tests used:
[1] = plasma, cited from earlier work
[2] = system: systolic or diastolic blood pressure; conditions: cited from earlier work
[3] = system: tyramine pressor response; conditions: cited from earlier work; for TSF High / TSF Low: literature-reported
[4] = typical circumstances, no MAO inhibition; cited from earlier work
Monoamine Oxidase MAO-A = target: T1, Monoamine Oxidase MAO-A (Homo sapiens, UniProt P21397); assay: Monoamine oxidase MAO-A inhibition enzyme assay (kynuramine, spectrofluorimetric); type: biochemical; conditions: for interference with the inhibition of MAO-A by phenelzine (in words): beta blocker in presence of phenelzine […] nM and 150 nM; for inhibition at 2 µM / inhibitory activity of MAO-A (in words): beta blocker alone; for inhibitory activity of MAO-A (in words): significant = ≥50% inhibition
T1 construct: host or cells: insect cells (recombinant)
T1 sequence (P21397 1-527): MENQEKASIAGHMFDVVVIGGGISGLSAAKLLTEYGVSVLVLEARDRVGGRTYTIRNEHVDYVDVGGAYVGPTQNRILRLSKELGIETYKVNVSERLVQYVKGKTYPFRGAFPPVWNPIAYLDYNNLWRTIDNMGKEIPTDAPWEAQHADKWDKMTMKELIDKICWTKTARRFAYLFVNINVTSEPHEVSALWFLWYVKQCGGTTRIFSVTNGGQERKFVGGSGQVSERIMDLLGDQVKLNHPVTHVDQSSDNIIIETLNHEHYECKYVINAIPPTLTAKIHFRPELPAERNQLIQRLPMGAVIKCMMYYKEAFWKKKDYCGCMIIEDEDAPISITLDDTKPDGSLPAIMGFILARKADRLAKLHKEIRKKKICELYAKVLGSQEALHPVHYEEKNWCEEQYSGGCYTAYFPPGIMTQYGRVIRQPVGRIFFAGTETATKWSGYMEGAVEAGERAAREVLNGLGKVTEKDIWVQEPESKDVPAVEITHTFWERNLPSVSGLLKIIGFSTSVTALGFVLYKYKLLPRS

Monoamine Oxidase MAO-B = target: T2, Monoamine Oxidase MAO-B (Homo sapiens, UniProt P27338); assay: Monoamine oxidase MAO-B inhibition enzyme assay (kynuramine, spectrofluorimetric); type: biochemical; conditions: for inhibition at 2 µM: read-out: % MAO-B inhibition
T2 construct: host or cells: insect cells (recombinant)
T2 sequence (P27338 1-520): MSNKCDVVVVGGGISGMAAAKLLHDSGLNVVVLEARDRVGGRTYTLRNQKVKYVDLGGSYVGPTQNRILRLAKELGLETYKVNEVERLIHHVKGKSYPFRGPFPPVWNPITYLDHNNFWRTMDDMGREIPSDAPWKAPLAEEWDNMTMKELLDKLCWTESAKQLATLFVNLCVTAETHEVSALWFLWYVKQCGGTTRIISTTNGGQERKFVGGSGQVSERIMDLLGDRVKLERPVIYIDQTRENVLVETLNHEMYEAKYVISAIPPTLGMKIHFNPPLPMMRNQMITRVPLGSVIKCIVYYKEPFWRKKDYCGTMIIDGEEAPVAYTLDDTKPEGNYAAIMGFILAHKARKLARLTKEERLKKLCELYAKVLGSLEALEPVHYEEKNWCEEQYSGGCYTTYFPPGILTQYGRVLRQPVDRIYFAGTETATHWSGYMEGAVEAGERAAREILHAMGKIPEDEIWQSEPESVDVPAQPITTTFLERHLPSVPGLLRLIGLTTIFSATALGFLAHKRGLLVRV

depression = conditions: meta-analysis of 14 antidepressants and placebo; cited from earlier work
[5] = Tranylcypromine 20 mg/d with placebo (no beta blocker)
[6] = Selegiline 10 mg/d with placebo (no beta blocker)
[7] = Phenelzine 60 mg/d with placebo (no beta blocker)

Compound | half-life [1] | interference with the inhibition of MAO-A by phenelzine (in words) (Monoamine Oxidase MAO-A) | inhibition at 2 µM (Monoamine Oxidase MAO-A; role: inhibitor) | inhibitory activity of MAO-A (in words) (Monoamine Oxidase MAO-A; role: inhibitor) | inhibitory activity of MAO-B (in words) (Monoamine Oxidase MAO-B) | interference with the inhibition of MAO-B by phenelzine (in words) (Monoamine Oxidase MAO-B) | inhibition at 2 µM (Monoamine Oxidase MAO-B) | also measured
N[C@@H]1C[C@H]1c1ccccc1 (relative stereo) [Tranylcypromine] | approximately 2.5 hours | – | – | – | – | – | – | patients with significant transient blood pressure increases (20 mmHg or more) immediately after taking [2]: approximately 50%; TSF High [3, 5]: 55; TSF Low [3, 5]: 30; TSF ([3]; tranylcypromine at 20 mg/day): 55
COC(=O)CCc1ccc(OCC(O)CNC(C)C)cc1 (centres unmarked) [Esmolol] | approximately 9 minutes | – | – | – | – | – | – | –
NCCc1ccc(O)cc1 [tyramine] | – | – | – | – | – | – | – | dietary tyramine ending up in systemic circulation [4]: less than 1%
CC(C)NCC(O)COc1cccc2[nH]ccc12 (centres unmarked) [Pindolol, 1-(Indol-4-yloxy)-3-(isopropylamino)-2-propanol] | 3 to 4 h | no interference was observed | -1% | no significant inhibitory activity | no significant inhibitory activity | no interference was observed | -5% | –
COc1ccccc1OCCNCC(O)COc1cccc2[nH]c3ccccc3c12 (centres unmarked) [Carvedilol] | – | no interference was observed | 4% | no significant inhibitory activity | no significant inhibitory activity | no interference was observed | 23% | –
Cc1cc(C(=O)NNCc2ccccc2)no1 [Isocarboxazide] | – | – | – | – | – | – | – | % MAO-A inhibition (Monoamine Oxidase MAO-A; role: inhibitor, isocarboxazid 10 μM): 91%; % MAO-B inhibition (Monoamine Oxidase MAO-B): 98%
C#CCN(C)[C@H](C)Cc1ccccc1 [Selegiline] | – | – | – | – | – | – | – | half-life ([1]; human): approximately 10 hours; TSF High [3, 6]: 4; TSF Low [3, 6]: 3
CC(C)NCC(O)COc1ccc(COCCOC(C)C)cc1 (centres unmarked) [Bisoprolol] | 9 to 12 h | no interference was observed | -5% | no significant inhibitory activity | no significant inhibitory activity | no interference was observed | 13% | –
NNCCc1ccccc1 [Phenelzine] | approximately 11.6 hours | – | – | – | – | – | – | efficacy compared to all other treatments (in words) (depression): superior efficacy compared to all other treatments; patients with significant transient blood pressure increases (20 mmHg or more) immediately after taking [2]: approximately 50%; TSF High [3, 7]: 30; TSF Low [3, 7]: 9; TSF ([3]; phenelzine at 45 mg/day): 13.3
